Reference: patent US20230263826A1, “Compositions and Methods for Treatment and Prevention of Type 1 Diabetes” (The UAB Research Foundation, priority 2021, published 2023)

Key:
Type in all cases: in vivo, mouse
female NOD mice [1] = assay: β cell mass and circulating insulin at sacrifice in FKGK18-treated NOD mice; settings: 8-week regimen group
Protocol: (§1) FIGS. 1A-1M show the effects of temporal FKGK18 regimen on T1D incidence and islet phenotype, wherein female NOD mice were administered FKGK18 (20 mg/kg, 3 × weekly) or vehicle (PBS-T) starting at 4 or 8 weeks of age. FIGS. 1A and 1B show diabetes incidence; blood glucose was monitored weekly in the 4-week (FIG. 1A; n = 17 and 15 for PBS-T and FKGK18 groups, respectively) and 8-week (FIG. 1B; n = 15 each in the PBS-T and FKGK18 groups) regimen groups for up to 30 weeks. Two consecutive readings of ≥ 275 mg/dL were recorded as onset of T1D (^†P < 0.05). FIGS. 1C-1F show glucose tolerance test (GTT) results, wherein overnight fasted mice were administered glucose (2 g/kg, i.p.), glucose levels in blood from tail vein were monitored over a 2-hour period, and AUC were generated. […] FIGS. 1H and 1I show β Cell mass (PBS-T, n = 15; FKGK18, n = 14) (FIG. 1H) and circulating insulin (n = 15 in each group) (FIG. 1I) were determined at sacrifice (PBS-T, 14-30 weeks of age; FKGK18, 16-36 weeks of age). FIGS. 1J and 1K show islet infiltration; paraffin sections (10 µm) of pancreas were prepared and stained with H&E. Percent infiltration for each islet was calculated as the value of noninfiltrated area subtracted from total islet area (% infiltrate = 100 × [(total area - noninfiltrated area)/(total area)]) using ImageJ software. […]

female NOD mice [2] = assay: Islet infiltration and islet immune cell phenotype (H&E, CD4+ T cell and B220 staining of pancreas sections); settings: 8-week regimen group
Protocol: as §1, with “generated. FIGS. 1C and 1D show four-week group at 14 weeks of age; n = 5 each in the PBS-T and FKGK18 groups. FIGS. 1E and 1F show eight-week group at 25 weeks of age; n = 7 and 5 for PBS-T and FKGK18 groups, respectively. FIGS. 1G-1I show phenotype parameters in the 8-week regimen group.” for “generated.”, “software. (PBS-T, n = 14 and 166 islets; FKGK18, n = 15 and 260 islets).” for “software.”
Blood glucose levels were measured weekly via tail vein blood draw (2 µL) with Breeze 2 Blood Glucose Monitoring System (Bayer HealthCare). Diabetes incidence was based on 2 consecutive blood glucose readings ≥ 275 mg/dL, at which time the mouse was euthanized. […] Pancreas section and islet images were captured on an Olympus IX81 microscope using cellSens Dimension software and analyzed using ImageJ software (NIH).

female NOD mice [3] = assay: T1D incidence in female NOD mice administered FKGK18 (weekly blood glucose monitoring)
Protocol: FIGS. 1A-1M show the effects of temporal FKGK18 regimen on T1D incidence and islet phenotype, wherein female NOD mice were administered FKGK18 (20 mg/kg, 3 × weekly) or vehicle (PBS-T) starting at 4 or 8 weeks of age. FIGS. 1A and 1B show diabetes incidence; blood glucose was monitored weekly in the 4-week (FIG. 1A; n = 17 and 15 for PBS-T and FKGK18 groups, respectively) and 8-week (FIG. 1B; n = 15 each in the PBS-T and FKGK18 groups) regimen groups for up to 30 weeks. Two consecutive readings of ≥ 275 mg/dL were recorded as onset of T1D (^†P < 0.05). FIGS. 1C-1F show glucose tolerance test (GTT) results, wherein overnight fasted mice were administered glucose (2 g/kg, i.p.), glucose levels in blood from tail vein were monitored over a 2-hour period, and AUC were generated. FIGS. 1C and 1D show four-week group at 14 weeks of age; n = 5 each in the PBS-T and FKGK18 groups. FIGS. 1E and 1F show eight-week group at 25 weeks of age; n = 7 and 5 for PBS-T and FKGK18 groups, respectively. FIGS. 1G-1I show phenotype parameters in the 8-week regimen group. […] FIGS. 1H and 1I show β Cell mass (PBS-T, n = 15; FKGK18, n = 14) (FIG. 1H) and circulating insulin (n = 15 in each group) (FIG. 1I) were determined at sacrifice (PBS-T, 14-30 weeks of age; FKGK18, 16-36 weeks of age). FIGS. 1J and 1K show islet infiltration; paraffin sections (10 µm) of pancreas were prepared and stained with H&E. Percent infiltration for each islet was calculated as the value of noninfiltrated area subtracted from total islet area (% infiltrate = 100 × [(total area - noninfiltrated area)/(total area)]) using ImageJ software. (PBS-T, n = 14 and 166 islets; FKGK18, n = 15 and 260 islets). […] FIGS. 1L and 1M show islet immune cell phenotype; paraffin sections (10 µm) of pancreas were prepared and stained for CD4+-T cells or B (B220) cells. Data presented are mean ± SEM of CD4+ T cells or B cells per islet. […] Statistical analyses: (FIGS. 1A and 1B) Mantel-Cox test; (FIGS. 1D-1M) Student’s t test.
FIGS. 2A-2E show the effects of FKGK18-withdrawal regimen on T1D incidence and glucose tolerance, wherein female NOD mice were administered FKGK18 (20 mg/kg, 3 × weekly, n = 18) or vehicle (PBS-T, n = 17) starting at 10 days of age and until 14 weeks of age. […] FIGS. 2B and 2D show glucose tolerance test (GTT) results, assessed at 14 (FIG. 2B) and 25 (FIG. 2D) weeks of age (data are presented as mean ± SEM), as described in FIG. 1. FIGS. 2C and 2E show corresponding AUC. […]
Blood glucose levels were measured weekly via tail vein blood draw (2 µL) with Breeze 2 Blood Glucose Monitoring System (Bayer HealthCare). Diabetes incidence was based on 2 consecutive blood glucose readings ≥ 275 mg/dL, at which time the mouse was euthanized. […]

## O=C(CCCCc1ccc2ccccc2c1)C(F)(F)F [FKGK18]
Female NOD mice [1]
  β cell mass vs PBS-T: similar
Female NOD mice [1]; nonfasting
  circulating insulin vs PBS-T: higher
Female NOD mice [2]
  pancreatic islet abundance of B cells relative to PBS-T: significantly reduced
  pancreatic islet abundance of CD4+ T cells relative to PBS-T: significantly reduced
Female NOD mice [2]; H&E pancreas sections
  islet infiltration vs PBS-T: reduced
Female NOD mice [3]; FKGK18 20 mg/kg i.p. 3 times/week starting at 4 weeks of age, monitored up to 30 weeks, PBS-T 80% T1D incidence
  mice that remained diabetes free: 40%
Female NOD mice [3]; FKGK18 20 mg/kg i.p. 3 times/week starting at 8 weeks of age, modest delay
  T1D incidence vs corresponding PBS-T group: not significantly different
Female NOD mice [3]; FKGK18 20 mg/kg i.p. 3 times/week starting at 10 days of age, by 25-30 weeks of age, vehicle 80%-90% diabetic, data not shown
  NOD that developed T1D: 10%-15%
Female NOD mice [3]; FKGK18 from 10 days until 14 weeks of age, then withdrawn, monitored up to 30 weeks
  decreased T1D incidence after FKGK18 withdrawal: not evident
